pEC50: −log10 of the molar value. “And” between values parts separate entries of the source, which are not always exact repeats. Equal entries are not always repeated.
Legend:
[1] = tested on: halofuginone-induced P. falciparum (elevated proline homeostasis); conditions: within five generations (10 days); cited from earlier work
P. falciparum Dd2-2D4 [2] = conditions: halofuginone pressure; cited from earlier work
[3] = tested on: luciferase-expressing P. berghei ANKA sporozoites; assay: P. berghei liver stage assay in HuH7 cells (luciferase, Bright-Glo); format: cell-based, Plasmodium berghei; conditions: for Parasite Load, dose-response point: single replicates
Method: (§1) HuH7 cells (Sigma, Cat#: 01042712, Lot:18H009) were cultured in DMEM + L-Glutamine (Gibco) supplemented with 10% (v/v) heat-inactivated FBS (Sigma) and 1% (v/v) antibiotic/antimycotic (Sigma). Hepatocyte cultures were maintained in a standard tissue culture incubator at 37 °C. Anopheles mosquitoes infected with luciferase-expressing P. berghei ANKA sporozoites were obtained from the Sporocore at the University of Georgia. Liver stage P. berghei assays were completed as previously described. Briefly, 4000 HuH7 cells were seeded into 384-well plates (Corning) 1 day prior to infection. Compounds (0–50 µM) were added in triplicate to wells before infection with 4000 P. berghei sporozoites. […] Relative fluorescence and luminescence signal intensities were normalized to the negative control, 1% DMSO. EC50 values were determined using PRISM (V. 8.4.3–9.1.0, GraphPad) through fitting data to a dose-response curve.

HuH7 cells = assay: HuH7 host hepatocyte viability (CellTiter-Fluor); format: cell-based, human; conditions: for HuH7 Growth, dose-response point: single replicates
Method: as §1, with “infection.” for “infection. Compounds (0–50 µM) were added in triplicate to wells before infection with 4000 P. berghei sporozoites.”

P. falciparum Dd2-2D4 [4] = assay: P. falciparum ABS short-term resistance susceptibility assay; format: cell-based, Plasmodium falciparum; conditions: wild-type parasites under intermittent drug pressure
Method: Following recrudescence, sensitivity to NCP26 and halofuginone was assayed using the ABS growth assay.

P. falciparum Dd2-2D4 [5] = assay: NCP26 resistance selection under intermittent drug pressure; format: cell-based, Plasmodium falciparum; conditions: 10^9 parasites
Method: In short, parasites were treated with 4x EC50 NCP26 until no parasites were detected by giemsa staining microscopy. […] This cycle was repeated for ~50 generations (~100 days), corresponding to 5–6 cycles of drug pressure.

For O=C(CC1NCCCC1O)Cn1cnc2cc(Br)c(Cl)cc2c1=O (centres unmarked) [Halofuginone], the “tolerance of halofuginone-induced bulk cultures” value [1] is listed as 10–20 fold and the “generations until resistant parasites arise” value (P. falciparum Dd2-2D4 [2]) is listed as < 5 generations.
For O=C(NC1Cc2ccccc2C1)c1nccnc1NC(=O)N1CCCCC1 [NCP26], the “Parasite Load, dose-response point” value ([3]; Log[inhibitor] (M) -5.602) was 4.50E-01 and 4.96E-01 and 3.82E-01, the “Parasite Load, dose-response point” value ([3]; Log[inhibitor] (M) -6.000) was 6.73E-01 and 1.77E+00 and 8.83E-01 and the “Parasite Load, dose-response point” value ([3]; Log[inhibitor] (M) -6.301) was 2.58E+00 and 1.62E+00 and 1.38E+00. For the same compound, the “Parasite Load, dose-response point” value ([3]; Log[inhibitor] (M) -6.602) was 2.09E+01 and 4.21E+01 and 3.50E+01, the “Parasite Load, dose-response point” value ([3]; Log[inhibitor] (M) -7.602) was 1.02E+02 and 9.26E+01 and 8.31E+01 and the “Parasite Load, dose-response point” value ([3]; Log[inhibitor] (M) -8.602) was 9.21E+01 and 5.24E+01 and 5.53E+01. For the same compound, the “Parasite Load, dose-response point” value ([3]; Log[inhibitor] (M) -9.602) was 7.79E+01 and 6.82E+01 and 1.12E+02, the “Parasite Load, dose-response point” value ([3]; Log[inhibitor] (M) -9.903) was 5.64E+01 and 9.94E+01 and 8.54E+01 and the pEC50 ([3]; Plasmodium berghei, Huh-7, HuH7 cells infected with sporozoites, ~44 hpi) was 6.63. The pEC50 (HuH7 cells; Homo sapiens, Huh-7, HuH7 cell viability, ~44 hpi) was < 5.60, the “HuH7 Growth, dose-response point” value (HuH7 cells; Log[inhibitor] (M) -5.602) was 6.24E+01 and 5.40E+01 and 5.94E+01 and the “HuH7 Growth, dose-response point” value (HuH7 cells; Log[inhibitor] (M) -6.000) was 6.34E+01 and 6.90E+01 and 6.75E+01. For the same compound, the “HuH7 Growth, dose-response point” value (HuH7 cells; Log[inhibitor] (M) -6.301) was 6.99E+01 and 7.05E+01 and 6.37E+01, the “HuH7 Growth, dose-response point” value (HuH7 cells; Log[inhibitor] (M) -6.602) was 7.89E+01 and 8.13E+01 and 7.81E+01 and the “HuH7 Growth, dose-response point” value (HuH7 cells; Log[inhibitor] (M) -7.602) was 9.65E+01 and 1.01E+02 and 8.52E+01. For the same compound, the “HuH7 Growth, dose-response point” value (HuH7 cells; Log[inhibitor] (M) -8.602) was 9.96E+01 and 1.08E+02 and 9.36E+01, the “HuH7 Growth, dose-response point” value (HuH7 cells; Log[inhibitor] (M) -9.602) was 1.01E+02 and 1.06E+02 and 1.03E+02 and the “HuH7 Growth, dose-response point” value (HuH7 cells; Log[inhibitor] (M) -9.903) was 1.05E+02 and 1.11E+02 and 1.08E+02. For the same compound, the “induction of rapid resistance” value (P. falciparum Dd2-2D4 [4]) was “did not induce rapid resistance”, the “resistance to NCP26 after selection” value (P. falciparum Dd2-2D4 [5]; >50 generations (100 days), 2 out of 3 selections) was 20-to-80 fold and the “generations until resistance arises” value (P. falciparum Dd2-2D4 [5]; intermittent drug pressure) was > 50 generations.

— PMC9403976, “Elucidating the path to Plasmodium prolyl-tRNA synthetase inhibitors that overcome halofuginone resistance” (Nature Communications, 2022)
